Experimental data as given in patent publication US4350699A, “Pyridylalkoxysulfinyl derivatives of carbamate esters” (priority 1981, dated 1982).

What was measured:
tobacco cutworms = experiment: test against tobacco cutworms (3rd instar larvae), cabbage leaf dip, mortality counted 72 hours after the treatment; assay type: in vivo; conditions: for mortality at 100 ppm / mortality at 500 ppm: foliar, leaf dip, 72 hours
Description: In the test against tobacco cutworms, aqueous solutions containing each toxicant at 100 and 500 ppm and an emulsifying agent, Shingramin, at 0.03% were prepared. The composition of Shingramin is understood to consist of 20% of polyoxyethylene dodecyl ether and polyoxyethylene alkylaryl ether, 12% ligninsulfonates and 68% inert solvents, by weight. A cabbage leaf was dipped into each of these solutions for 30 seconds, and put in a paper cup of 8 cm diameter. Ten tobacco cutworms (3rd instar larvae) were released onto the leaf. Two leaves were used for each dilution. Mortality of the insects was counted 72 hours after the treatment.

House Flies = conditions: for House Flies LD50: topical on the notum, 1 μl acetone solution, 24 hours; for toxicity against house flies (in words): judged from LD50 of Table I
Description: (§1) Representative compounds of the pyridylalkoxysulfinyl derivatives of carbamate esters of the invention were tested for insecticidal activity against house flies and tobacco cutworms, and for mammalian toxicity against mice.
In the test for houseflies, stock 1% concentrated solutions of each of the test compounds and the commercially related carbamate ester insecticide, methomyl, were made in acetone, and such solutions were diluted with acetone to a concentration of 0.001-0.1%. House flies were treated topically on the notum by 1 μl of each of the diluted acetone solutions and percent mortality was counted 24 hours after application.

Mice = experiment: in vivo; conditions: compared with parent carbamate (methomyl or MIP)
Description: as §1
(§2) Mammalian toxicity was determined against Swiss white mice. The test compound was applied orally using propylene glycol as the carrier.

in vivo = conditions: mouse, in vivo, po
Description: as §1, §2

| SMILES | mortality at 100 ppm (tobacco cutworms) [%] | mortality at 500 ppm (tobacco cutworms) [%] | House Flies LD50 (House Flies) [µg/g] | mammalian toxicity (in words) (Mice) | toxicity against house flies (in words) (House Flies) | LD50 (in vivo) [mg/kg] | potency for tobacco cutworms (in words) (tobacco cutworms; compared with methomyl) |
| --- | --- | --- | --- | --- | --- | --- | --- |
| CNC(=O)ON=C(C)SC [methomyl, reference compound] | 100 | 100 | 3.7 | much higher toxicity |  |  |  |
| CC(C)c1cccc(OC(=O)N(C)S(=O)OCc2ccccn2)c1 (stereo not shown) [IX, 3-Isopropylphenyl N-(2-pyridylmethoxysulfinyl)-N-methylcarbamate] |  |  | 111.5 | substantially lower mammalian toxicity | good toxicity | 105 |  |
| CSC(C)=NOC(=O)N(C)S(=O)OCc1cccnc1 (stereo not shown) [III, S-methyl N-[N'-methyl-N'-(3-pyridylmethoxy)sulfinylcarbamoyloxy]-thioacetimidate] | 85 | 100 | 5.8 | low | good toxicity | 96 |  |
| CSC(C)=NOC(=O)N(C)S(=O)OCc1ccccn1 (stereo not shown) [I, S-methyl N-[N'-methyl-N'-(2-pyridylmethoxy)-sulfinylcarbamoyloxy] thioacetimidate] | 5 | 65 | 7.0 | low | good toxicity | 85 | not as potent as methomyl |
| CNC(=O)Oc1cccc(C(C)C)c1 [MIP, reference compound] |  |  |  | much higher mammalian toxicity |  |  |  |
